Source: ChEMBL document CHEMBL4813985, “Lead optimization generates selenium-containing miconazole CYP51 inhibitors with improved pharmacological profile for the treatment of fungal infections” (Eur J Med Chem, 2021)
≈ marks a conversion by molar mass, not a printed value.

Legend:
Type in all cases: functional
Candida albicans [1] = experiment: Antifungal activity against fluconazole-resistant Candida albicans 632 assessed as inhibition of microbial growth after 24 hrs by broth microdilution method
Candida albicans [2] = experiment: Antifungal activity against fluconazole-resistant Candida albicans 17# assessed as inhibition of microbial growth after 24 hrs by broth microdilution method
Candida albicans [3] = experiment: Potency index, ratio of fluconazole MIC to test compound MIC for Candida albicans CPCC400616 measured after 24 hrs by broth microdilution assay
Nakaseomyces glabratus = experiment: Antifungal activity against Candida glabrata measured after 24 hrs by broth microdilution assay
[Candida] zeylanoides = Antifungal activity against Candida zeylanoides CMGCC2.3739 measured after 24 hrs by broth microdilution assay; settings: Dujonia zeylanoides
Aspergillus fumigatus = experiment: Antifungal activity against Aspergillus fumigatus CMGCC3.7795 measured after 72 hrs by broth microdilution assay
Candida albicans [4] = experiment: Antifungal activity against fluconazole-resistant Candida albicans 904 assessed as inhibition of microbial growth after 24 hrs by broth microdilution method
Cryptococcus neoformans = experiment: Antifungal activity against Cryptococcus neoformans CMGCC2.3161 measured after 72 hrs by broth microdilution assay
Candida albicans [5] = experiment: Antifungal activity against Candida albicans CPCC400616 measured after 24 hrs by broth microdilution assay
Candida parapsilosis = experiment: Antifungal activity against Candida parapsilosis ATCC 22019 measured after 24 hrs by broth microdilution assay; settings: Lodderomyces parapsilosis
Candida albicans [6] = experiment: Antifungal activity against fluconazole-resistant Candida albicans CaR assessed as inhibition of microbial growth after 24 hrs by broth microdilution method
Candida albicans [7] = experiment: Antifungal activity against fluconazole-resistant Candida albicans 901 assessed as inhibition of microbial growth after 24 hrs by broth microdilution method
Candida albicans [8] = experiment: Antifungal activity against Candida albicans ATCC SC5314 measured after 24 hrs by broth microdilution assay
Pichia kudriavzevii = experiment: Antifungal activity against Candida krusei AS2.1045 measured after 24 hrs by broth microdilution assay

Structure (SMILES) | MIC (Candida albicans [1]) [µg/mL] | MIC (Candida albicans [2]) [µg/mL] | Ratio (Candida albicans [3]) | MIC (Nakaseomyces glabratus) [µg/mL] | MIC ([Candida] zeylanoides) [µg/mL] | MIC (Aspergillus fumigatus) [µg/mL] | MIC (Candida albicans [4]) [µg/mL] | MIC (Cryptococcus neoformans) [µg/mL] | MIC (Candida albicans [5]) [µg/mL] | MIC (Candida parapsilosis) [µg/mL] | MIC (Candida albicans [6]) [µg/mL] | MIC (Candida albicans [7]) [µg/mL] | MIC (Candida albicans [8]) [µg/mL] | MIC (Pichia kudriavzevii) [µg/mL]
Fc1cccc([Se]C(Cn2ccnc2)c2ccc(F)cc2F)c1 (centres undefined) | 1 | 4 | 8 | 1 (≈ 2.62 µM) | 0.5 (≈ 1.31 µM) | 8 (≈ 21 µM) | 2 | 0.5 (≈ 1.31 µM) | 0.5 (≈ 1.31 µM) | 0.25 (≈ 0.656 µM) | 4 | 2 | 0.03 (≈ 0.0787 µM) | 0.13 (≈ 0.341 µM)
Cc1cc(C)cc([Se]C(Cn2ccnc2)c2ccc(Cl)cc2Cl)c1 (centres undefined) | 16 | 16 | 8 | 0.25 (≈ 0.589 µM) | 0.5 (≈ 1.18 µM) | 8 (≈ 18.9 µM) | 16 | 0.5 (≈ 1.18 µM) | 0.5 (≈ 1.18 µM) | 0.5 (≈ 1.18 µM) | 8 | 4 | 0.06 (≈ 0.141 µM) | 0.5 (≈ 1.18 µM)
Cc1ccc([Se]C(Cn2ccnc2)c2ccc(F)cc2F)cc1 (centres undefined) | 1 | 16 | 8 | 0.5 (≈ 1.33 µM) | 0.5 (≈ 1.33 µM) | 8 (≈ 21.2 µM) | 4 | 0.13 (≈ 0.345 µM) | 0.5 (≈ 1.33 µM) | 0.25 (≈ 0.663 µM) | 2 | 8 | 0.03 (≈ 0.0795 µM) | 0.13 (≈ 0.345 µM)
Cc1cc(C)cc([Se]C(Cn2ccnc2)c2ccc(F)cc2F)c1 (centres undefined) | 8 | 4 | 8 | 0.5 (≈ 1.28 µM) | 0.5 (≈ 1.28 µM) | 8 (≈ 20.4 µM) | 8 | 0.5 (≈ 1.28 µM) | 0.13 (≈ 0.332 µM) | 0.13 (≈ 0.332 µM) | 2 | 4 | 0.03 (≈ 0.0767 µM) | 0.13 (≈ 0.332 µM)
COc1cccc([Se]C(Cn2ccnc2)c2ccc(F)cc2F)c1 (centres undefined) | 1 | 4 | 8 | 0.5 (≈ 1.27 µM) | 1 (≈ 2.54 µM) | 4 (≈ 10.2 µM) | 8 | 0.5 (≈ 1.27 µM) | 0.5 (≈ 1.27 µM) | 0.25 (≈ 0.636 µM) | 2 | 4 | 0.13 (≈ 0.331 µM) | 0.13 (≈ 0.331 µM)
Fc1ccc([Se]C(Cn2ccnc2)c2ccc(Cl)cc2Cl)cc1 (centres undefined) | 1 | 2 | 8 | 0.5 (≈ 1.21 µM) | 0.25 (≈ 0.604 µM) | 8 (≈ 19.3 µM) | 1 | 0.03 (≈ 0.0724 µM) | 0.25 (≈ 0.604 µM) | 0.25 (≈ 0.604 µM) | 8 | 1 | 0.03 (≈ 0.0724 µM) | 0.02 (≈ 0.0483 µM)
